# Molecular target: Neuronal acetylcholine receptor subunit alpha-7 (Rattus norvegicus) (UniProt Q05941)
# Assay: Selectivity for rat alpha7 nAChR over human alpha3 nAChR
smiles,measurement,value
Cl.O=C(CCCCN1CCOCC1)Nc1ccc(-c2cccnc2)cc1,Selectivity ratio,5.3
